These results are taken from patent publication US10940139B2, “Compounds that interact with the Ras superfamily for the treatment of cancers, inflammatory diseases, rasopathies, and fibrotic disease” (Shy Therapeutics LLC, priority 2017, dated 2021).

One test concerns the target KRas G12D mutant protein (Homo sapiens (Human), UniProt P01116, G12D). The experiment in a line: Ras GTP binding domain inhibition assay (labeled GTP). The settings on record: at 20 μM; read-out: KRas G12D % Inh.
Test [1] concerns the target KRas G12D/Q61H double mutant (Homo sapiens (Human), UniProt P01116, G12D/Q61H). The description is as above. The settings on record: at 20 μM; read-out: KRas G12D Q61H % Inh. An outline of the steps:
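Fluorescence read-out of Cy3-/Cy5-GTP remaining bound to nickel-immobilized His-KRas after washes. Protein was coated overnight at 4° C, then exposed to compound for 3 h at room temperature before a 45 min labeled-GTP incubation.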

The target of the next test is Rho-A (Homo sapiens (Human), UniProt P61586). The experiment in a line: Rho inhibition assay (labeled GTP). The test is classed as binding. The settings on record: read-out: Rho-A % Inh.
For another test, the target named is Rac-1 (Homo sapiens (Human), UniProt P63000). Briefly: Rac inhibition assay (labeled GTP). In kind it is binding. The conditions noted are these: read-out: Rac-1 % Inh.

KRas G12D/Q61H double mutant, sequence (P01116-2 other isoform, or with tags, fused parts or gaps G12D/Q61H): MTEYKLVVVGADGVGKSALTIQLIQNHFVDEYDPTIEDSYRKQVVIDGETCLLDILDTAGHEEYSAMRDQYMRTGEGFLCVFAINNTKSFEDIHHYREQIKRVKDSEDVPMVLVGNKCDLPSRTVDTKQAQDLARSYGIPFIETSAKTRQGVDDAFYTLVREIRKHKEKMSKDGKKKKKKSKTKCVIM
Rho-A, sequence (P61586 whole entry): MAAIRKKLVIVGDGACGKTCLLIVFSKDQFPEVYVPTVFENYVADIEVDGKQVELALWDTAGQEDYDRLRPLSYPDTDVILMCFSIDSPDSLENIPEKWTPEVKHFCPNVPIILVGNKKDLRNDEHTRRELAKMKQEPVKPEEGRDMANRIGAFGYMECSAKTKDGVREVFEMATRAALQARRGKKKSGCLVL
KRas G12D mutant protein, sequence (P01116-2 other isoform, or with tags, fused parts or gaps G12D): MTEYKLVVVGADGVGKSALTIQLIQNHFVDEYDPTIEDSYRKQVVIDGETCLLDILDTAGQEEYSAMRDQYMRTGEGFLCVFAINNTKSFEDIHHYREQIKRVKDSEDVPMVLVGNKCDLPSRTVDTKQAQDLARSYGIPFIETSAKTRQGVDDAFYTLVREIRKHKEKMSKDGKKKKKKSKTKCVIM

Take `Nc1nc(-c2ccccn2)nc2ccsc12` [drawing 3706]: the inhibition at 20 µM at KRas G12D mutant protein is 1 to 25%; in test [1], 25 to 50%; on Rho-A it was 76 to 100%; on Rac-1 it was 76 to 100%.

As for `OCC1(c2ccc(-c3csc4c(O)nc(-c5ccccn5)nc34)cc2)CC1` [drawing 3758], the inhibition at 20 µM is 76 to 100% on KRas G12D mutant protein, 51 to 75% in test [1], 76 to 100% on Rho-A and 76 to 100% at Rac-1.

With `CN(C)Cc1ccc(F)c(-c2csc3c(O)nc(-c4ccccn4)nc23)c1` [drawing 3773], the inhibition at 20 µM on KRas G12D mutant protein fell in the range of 51 to 75%; in test [1], 25 to 50%; on Rho-A, 76 to 100%; on Rac-1 it was 51 to 75%.

`Oc1nc(-c2ccccn2)nc2c(-c3ccc(F)cc3F)csc12` [drawing 3743]: the inhibition at 20 µM (at KRas G12D mutant protein; in test [1]; on Rho-A; at Rac-1) was 51 to 75% throughout.

On to `O=S1(=O)CCN(Cc2cccc(-c3csc4c(O)nc(-c5ccccn5)nc34)c2)CC1` [drawing 3736], for which the inhibition at 20 µM on KRas G12D mutant protein fell in the range of 51 to 75%; in test [1], 51 to 75%; on Rho-A it was 76 to 100%; on Rac-1, 76 to 100%.

As for `Cc1sc2c(O)nc(-c3ccccn3)nc2c1C(=O)N1CCN(c2ccccc2)CC1C` (stereo not shown) [drawing 3828], the inhibition at 20 µM (at KRas G12D mutant protein; in test [1]; at Rho-A; at Rac-1) was 51 to 75% each time.

Turning to `O=C(COCc1ccncc1)Nc1nc(-c2ccccn2)nc2sccc12` [drawing 3700], the inhibition at 20 µM on KRas G12D mutant protein is 51 to 75%; in test [1], 51 to 75%; on Rho-A, 76 to 100%; on Rac-1, 76 to 100%.

As for `COCCNc1nc(-c2ccccn2)nc2c1c(-c1ccccc1)nn2-c1ccccn1` [drawing 3856], the inhibition at 20 µM on KRas G12D mutant protein was 51 to 75%; in test [1] it was 51 to 75%; at Rho-A, 76 to 100%; at Rac-1, 76 to 100%.

Regarding `COc1c(O)nc(-c2ccccn2)nc1Oc1cccc(C(F)(F)F)c1` [drawing 3875], the inhibition at 20 µM on KRas G12D mutant protein was 76 to 100%; in test [1] it was 51 to 75%; on Rho-A, 76 to 100%; at Rac-1 it was 51 to 75%.

Consider `COCCNc1nc(-c2cn(C)cn2)nc2sc(-c3ccncc3)c(-c3ccccc3)c12` [drawing 3848], for which the inhibition at 20 µM at KRas G12D mutant protein is 51 to 75%; in test [1] it was 76 to 100%; on Rho-A, 76 to 100%; on Rac-1 it was 76 to 100%.

Regarding `COc1nc(-c2ccccn2)nc2c1c(-c1ccccc1)nn2-c1ccccn1` [drawing 3858], the inhibition at 20 µM on KRas G12D mutant protein was in the range of 51 to 75%; in test [1] it was 51 to 75%; at Rho-A it was 76 to 100%; at Rac-1, 76 to 100%.

Consider `Oc1nc(-c2ccccn2)nc2sc3c(c12)CCCNC3` [drawing 3724], for which the inhibition at 20 µM lay in the range of 51 to 75% on KRas G12D mutant protein, 25 to 50% in test [1], 51 to 75% at Rho-A and 76 to 100% at Rac-1.

As to `COc1ccnc(-c2nc(O)c3c(Cl)csc3n2)c1` [drawing 3689], the inhibition at 20 µM lay in the range of 51 to 75% on KRas G12D mutant protein, 51 to 75% in test [1], 76 to 100% at Rho-A and 76 to 100% at Rac-1.

Turning to `Oc1nc(-c2ccccn2)nc2sccc12` [drawing 3624], the inhibition at 20 µM was 25 to 50% at KRas G12D mutant protein, 51 to 75% in test [1], 76 to 100% at Rho-A and 76 to 100% at Rac-1.

For the compound `Oc1nc(-c2ccccn2)nc2c(-c3ccccn3)csc12` [drawing 3768], the inhibition at 20 µM is 25 to 50% on KRas G12D mutant protein, 1 to 25% in test [1], 51 to 75% at Rho-A and 51 to 75% on Rac-1.

In the case of `Oc1nc(-c2ccccn2)nc2c(-c3cccc(C(F)(F)F)c3)csc12` [drawing 3745], the inhibition at 20 µM at KRas G12D mutant protein lay within 51 to 75%; in test [1], 25 to 50%; at Rho-A, 25 to 50%; at Rac-1 it was 51 to 75%.

On to `COc1cccc(C2CN(C(=O)c3csc4c(O)nc(-c5ccccn5)nc34)CCN2)c1` (stereo not shown) [drawing 3662], for which the inhibition at 20 µM lay in the range of 51 to 75% on KRas G12D mutant protein, 25 to 50% in test [1], 76 to 100% at Rho-A and 76 to 100% on Rac-1.

`COc1cccc(CN2CCN(C(=O)c3csc4c(O)nc(-c5ccccn5)nc34)CC2)c1` [drawing 3652]: the inhibition at 20 µM at KRas G12D mutant protein is 76 to 100%; in test [1], 25 to 50%; at Rho-A, 76 to 100%; at Rac-1, 76 to 100%.

Take `COc1cnc(-c2cn(C)cn2)nc1O` [drawing 3815]: the inhibition at 20 µM is 51 to 75% at KRas G12D mutant protein, 51 to 75% in test [1], 76 to 100% at Rho-A and 76 to 100% at Rac-1.

With `COc1ccccc1-c1csc2c(O)nc(-c3ccccn3)nc12` [drawing 3742], the inhibition at 20 µM is 51 to 75% on KRas G12D mutant protein, 25 to 50% in test [1], 51 to 75% on Rho-A and 76 to 100% on Rac-1.

As for `Oc1nc(-c2ccccn2)nc2c(CC3CCNCC3)csc12` [drawing 3805], the inhibition at 20 µM at KRas G12D mutant protein was 51 to 75%; in test [1], 51 to 75%; on Rho-A, 76 to 100%; on Rac-1 it was 51 to 75%.

`CC(C)(O)c1ccc(-c2csc3c(O)nc(-c4ccccn4)nc23)c(F)c1` [drawing 3752]: the inhibition at 20 µM on KRas G12D mutant protein is 51 to 75%; in test [1], 51 to 75%; at Rho-A, 51 to 75%; at Rac-1 it was 76 to 100%.

As for `COc1ccc(CCC(=O)Nc2nc(-c3ccccn3)nc3sccc23)cn1` [drawing 3812], the inhibition at 20 µM on KRas G12D mutant protein was 51 to 75%; in test [1] it was 51 to 75%; on Rho-A it was 76 to 100%; at Rac-1 it was 76 to 100%.

For the compound `CC(C)c1csc2c(O)nc(-c3ccccn3)nc12` [drawing 3806], the inhibition at 20 µM (at KRas G12D mutant protein; in test [1]; at Rho-A; at Rac-1) was 51 to 75% each time.

Take `Oc1nc(-c2ccccn2)nc2sc3c(c12)CCNC3` [drawing 3723]: the inhibition at 20 µM on KRas G12D mutant protein lay within 76 to 100%; in test [1], 51 to 75%; at Rho-A, 76 to 100%; at Rac-1 it was 76 to 100%.

On to `O=C(CCc1cncnc1)Nc1nc(-c2ccccn2)nc2sccc12` [drawing 3763], for which the inhibition at 20 µM on KRas G12D mutant protein was in the range of 51 to 75%; in test [1] it was 51 to 75%; at Rho-A, 76 to 100%; at Rac-1, 76 to 100%.

For `COc1ccc(F)cc1-c1csc2c(O)nc(-c3ccccn3)nc12` [drawing 3746], the inhibition at 20 µM (on KRas G12D mutant protein; in test [1]; at Rho-A; at Rac-1) was 51 to 75% each time.

Turning to `Oc1nc(-c2ccccn2)nc2cc(-c3ccccc3)sc12` [drawing 3880], the inhibition at 20 µM fell in the range of 51 to 75% at KRas G12D mutant protein, 51 to 75% in test [1], 51 to 75% on Rho-A and 25 to 50% at Rac-1.
